In general, melting point refers to the temperature of the solid-liquid transition. By boiling point is commonly meant the temperature at which the vapour pressure of the liquid equals the pressure above it.

From the OPERA property sets (Mansouri et al. 2018) come the findings set out here.

Take `CC(C)=CCC/C(C)=C/C=C/C(C)=C/C=C/C(C)=C/C=C/C=C(C)/C=C/C=C(C)/C=C/C1C(C)=CCCC1(C)C` (stereo unspecified): the melting point was 140 °C.

In the case of `FC(F)(Cl)C(F)(Cl)C(F)(F)Cl`, the boiling point is 73.7 °C and the melting point was -72 °C.

`Cc1c(C)c(C)c(O)c(C)c1C` gave a boiling point of 267 °C and a melting point of 128 °C.

On to `CCCC(=O)OCc1ccccc1`, for which the boiling point came out at 239 °C.

As to `C=CCCCO`, the boiling point worked out at 141 °C.

The compound `Cc1ccc(S(=O)c2ccc(C)cc2)cc1` yielded a melting point of 95 °C.

Compound `BrC=CBr` returned a boiling point of 110 °C, a log10 Koc (L/kg) of 1.65, a log10 vapour pressure (mmHg) of 1.49 and a melting point of -37.5 °C. Also, the ready biodegradability result was “not readily biodegradable”.

As for `O=[N+]([O-])c1cccc(CO)c1`, the melting point turned out to be 30.5 °C.

Turning to `CC(C)(C)C=O`, the boiling point came out at 77.5 °C, the melting point was determined as 6 °C and the ready biodegradability entry is recorded as “readily biodegradable”.

With `CNC1(c2ccccc2Cl)CCCCC1=O.Cl` (stereo unspecified), the melting point was 262 °C.

In the case of `O[C@H]1[C@H](O)[C@H](O)OC[C@H]1O`, the melting point was determined as 158 °C.

Compound `C=CCCC=O` displayed a boiling point of 99 °C.

As for `Cc1ccc2[nH]c3ccccc3c2c1`, the boiling point was determined as 365 °C and the melting point was determined as 208 °C.

Turning to `CC1=C(CCO)SC2=Nc3nc(C)ncc3CN21`, the melting point was 229 °C.

With `CCCCC(C)C`, the boiling point is 90 °C, the log10 biodegradation half-life (days) was 0.477, the log10 vapour pressure (mmHg) came to 1.82 and the melting point was -118 °C.

With `CCCCCCCCCCCCOCCCCCCCCCCCC`, the ready biodegradability entry was “readily biodegradable”.

Compound `NCCO.O=C(Nc1ccc([N+](=O)[O-])cc1Cl)c1cc(Cl)ccc1O` had a melting point of 216 °C.

Consider `CC(C)CCC(C)(C)O`, for which the boiling point turned out to be 154 °C.

In the case of `CN1C2CCCC1CC(=O)C2`, the boiling point amounted to 246 °C and the melting point was found to be 54 °C.

In the case of `Clc1cc(Cl)c(-c2c(Cl)c(Cl)cc(Cl)c2Cl)c(Cl)c1Cl`, the log10 Henry constant (atm·m³/mol) is -4.77.

In turn, `CC1CCCC(C(C)C)C1` (stereo unspecified) registered a boiling point of 166 °C.

For `O=C1CCCCCC1`, the boiling point is 178 °C and the log10 vapour pressure (mmHg) amounted to 0.0969.

In turn, `CCCCCC(C)OC(=O)COc1ccc(Cl)c2cccnc12` (stereo unspecified) had a log10 vapour pressure (mmHg) of -7.4 and a melting point of 69.4 °C.

For the compound `CC(C)(N=C(O)C(Br)C(C)(C)C)c1ccccc1` (stereo unspecified), the melting point was found to be 180 °C.

Compound `Cc1cccc(C)c1NC1=NCCCS1` had a melting point of 140 °C.

For the compound `O=C(CCCN1CCC2(CC1)C(=O)NCN2c1ccccc1)c1ccc(F)cc1`, the melting point was 142 °C.

`CCCCC(C)(C)CCC` had a boiling point of 158 °C.

In turn, `Oc1cc(Cl)cc(Cl)c1Cl` returned a log10 Koc (L/kg) of 3.61, a log10 vapour pressure (mmHg) of -1.66 and a melting point of 62 °C.

The compound `COC(=O)c1ccc(Cl)cc1[N+](=O)[O-]` had a melting point of 44 °C.

Turning to `N#CNC(=N)N`, the melting point is 211 °C and the ready biodegradability entry was “not readily biodegradable”.

In the case of `CC1=CCC2C(=O)OC(=O)C2C1` (stereo unspecified), the ready biodegradability entry is on record as “not readily biodegradable”.

The compound `C[C@H]1[C@H](C)CC[C@]2(C(=O)O)CC[C@]3(C)C(=CC[C@@H]4[C@@]5(C)CC[C@H](O)C(C)(C)[C@@H]5CC[C@]43C)[C@H]12` showed a melting point of 284 °C.

Consider `CC(C)(CO)COC(=O)C(C)(C)CO`, for which the ready biodegradability entry is listed as “not readily biodegradable”.

Compound `C=COCCOCCO` yielded a boiling point of 196 °C.

Compound `OC1CCCCCC1` returned a boiling point of 185 °C and a melting point of 2 °C.

`CC1CCCCC1O` (stereo unspecified) registered a boiling point of 164 °C and a log10 Henry constant (atm·m³/mol) of -5.12.

For `c1ccc2n[nH]nc2c1`, the ready biodegradability entry was “not readily biodegradable”.

On to `C1CSCCN1`, for which the boiling point was 175 °C.

Turning to `CC=CCCC`, the ready biodegradability entry was “not readily biodegradable”.

`FC(F)(F)C(F)(F)I` gave a boiling point of 13 °C.

Regarding `C=CCCCl`, the boiling point was 75 °C.

In turn, `CCC(=O)c1cc(O)ccc1O` came in with a melting point of 96.5 °C.

On to `O=Cc1cccc(Cl)c1`, for which the boiling point is 214 °C and the melting point is 17.5 °C.

Consider `O=C1CN=C(c2ccccc2Cl)c2cc([N+](=O)[O-])ccc2N1`, for which the melting point is 238 °C.

Compound `CC(C)N(C)C` came in with a boiling point of 66 °C.

For `O=C(OCCO)c1ccc(C(=O)OCCO)cc1`, the ready biodegradability entry is “readily biodegradable”.

The compound `CC1NC(C)SC(C)S1` (stereo unspecified) showed a melting point of 46 °C.

For the compound `CCCCCCCCCCOC(=O)Cl`, the boiling point was 220 °C and the log10 vapour pressure (mmHg) is -1.59.

`CN1CCN(C2=Nc3ccccc3Oc3ccc(Cl)cc32)CC1` had a melting point of 110 °C.

In the case of `CC(C)(C#N)/N=N/C(C)(C)C#N`, the melting point was 102 °C.

In turn, `CC(C)COC(=O)C(=O)OCC(C)C` had a boiling point of 229 °C.

For the compound `Cc1onc(-c2ccccc2)c1C(=O)N[C@@H]1C(=O)N2[C@@H]1SC(C)(C)[C@@H]2C(=O)O`, the melting point is 188 °C.

On to `CCCC(O)CC/C=C/C=C/C#CC#C/C=C/CO` (stereo unspecified), for which the melting point was 87 °C.

For the compound `O=[N+]([O-])c1cc(S(=O)(=O)Nc2ccccc2)ccc1Nc1ccccc1`, the melting point is 156 °C and the ready biodegradability result is “not readily biodegradable”.

In turn, `CCCCCCCCCCCC(=O)OC(C)C` showed a log10 vapour pressure (mmHg) of -2.57.

Consider `Oc1c(Br)cc(Br)c2cccnc12`, for which the melting point stood at 196 °C.

`Clc1cc2c(cc1Cl)Oc1cc(Br)c(Br)cc1O2`: the log10 vapour pressure (mmHg) was -8.33 and the melting point is 316 °C.

The compound `CCCCCCCCCCCC(=O)OCCOCCO` came in with a melting point of 17.5 °C.

For the compound `Fc1ccc(-c2ccc(F)cc2)cc1`, the boiling point is 254 °C and the melting point was 94.5 °C.

As to `C1CCc2nnnn2CC1`, the melting point is 59.5 °C.

The compound `NC(=O)NC(=O)Cc1ccccc1` came in with a melting point of 215 °C.
